According to the supplement of paper PMC11208160:

Experiment: recombinant UMI read abundance after kanamycin selection (control-corrected) (log10(CPM+1)); higher = more efficient recombination; extreme values may be limits of the assay; sequences stand for … in AGTGCAGAGAAAATCGGCCAGTTTTCTCTGCCTGCAGTCCGCATGCCGTGGGACCCCTTGGGTTCTAACCTGTTGCCTAGATTTATGCAGCGGACTGCCTTTCTCCCAAAGTGATAAACCGG…AGGTTGGTTTCACT; site = the 11-nt donor
Procedure, shortened: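 Values are reported as log10(CPM+1), obtained by converting sequencing counts to CPM, averaging replicates and scaling by control-derived factors. The counts came from recombinant UMIs amplified by PCR across the donor–target junction. These UMIs came from a pooled Escherichia coli screen of donor and donor-binding-loop pairs for the IS621 bridge recombinase, plated with IPTG (0.07 mM) plus kanamycin or left unselected, in two replicates each.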
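Note: IS621 bridge recombinase in Escherichia coli cells against a fixed T5 target plasmid.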

Row | Sequence | recombinant UMI read abundance (log10)
1 | GCTGGCCCATGGACCGGTTTTCCCGGTAATCCGTATTTGAT (site GCTCGCCCTAT) | 0.00439
2 | GCTGGCCCATGGACCGGTTTTCCCGGTAATCCGTATTTGAT (site GCTGGCCCTAT) | 0.00519
3 | GCTGGCCCATGGACCGGTTTTCCCGGTAATCCGTATTTGAT (site GCTTGCCCTAT) | 0
4 | GCTGGTCCATGGACCGGTTTTCCCGGTAATCCGTATTTGTA (site GCTGGTCCTTA) | 0.297
5 | GCTGTCCCATGGACCGGTTTTCCCGGTAATCCGTATTTGGC (site GCTGTCCCTGC) | 0
6 | GCTGTTCCATGGACCGGTTTTCCCGGTAATCCGTATTTGGT (site GATGTTCCTAC) | 0.0117
7 | GCTGTTCCATGGACCGGTTTTCCCGGTAATCCGTATTTGGT (site GCTGTTCCTAC) | 0
8 | GCTGTTCCATGGACCGGTTTTCCCGGTAATCCGTATTTGGT (site GGTGTTCCTAC) | 0.0107
9 | GCTGTTCCATGGACCGGTTTTCCCGGTAATCCGTATTTGGT (site GTTGTTCCTAC) | 0
10 | GCTTGCCCATGGACCGGTTTTCCCGGTAATCCGTATTTGAT (site ACTTGCCCTAT) | 0
11 | GCTTGCCCATGGACCGGTTTTCCCGGTAATCCGTATTTGAT (site CCTTGCCCTAT) | 0.0733
12 | GCTTGCCCATGGACCGGTTTTCCCGGTAATCCGTATTTGAT (site GATTGCCCTAT) | 0.0145
13 | GCTTGCCCATGGACCGGTTTTCCCGGTAATCCGTATTTGAT (site GCATGCCCTAT) | 0.0036
14 | GCTTGCCCATGGACCGGTTTTCCCGGTAATCCGTATTTGAT (site GCCTGCCCTAT) | 0.0885
15 | GCTTGCCCATGGACCGGTTTTCCCGGTAATCCGTATTTGAT (site GCGTGCCCTAT) | 0.0338
16 | GCTTGCCCATGGACCGGTTTTCCCGGTAATCCGTATTTGAT (site GCTAGCCCTAT) | 0.00265
17 | GCTTGCCCATGGACCGGTTTTCCCGGTAATCCGTATTTGAT (site GCTCGCCCTAT) | 0.249
18 | GCTTGCCCATGGACCGGTTTTCCCGGTAATCCGTATTTGAT (site GCTGGCCCTAT) | 0.00346
19 | GCTTGCCCATGGACCGGTTTTCCCGGTAATCCGTATTTGAT (site GCTTACCCTAT) | 0.00934

Row | Sequence | recombinant UMI read abundance (log10)
20 | GCTTGCCCATGGACCGGTTTTCCCGGTAATCCGTATTTGAT (site GCTTCCCCTAT) | 0.0974
21 | GCTTGCCCATGGACCGGTTTTCCCGGTAATCCGTATTTGAT (site GCTTGACCTAT) | 0.0101
22 | GCTTGCCCATGGACCGGTTTTCCCGGTAATCCGTATTTGAT (site GCTTGCACTAT) | 0.00776
23 | GCTTGCCCATGGACCGGTTTTCCCGGTAATCCGTATTTGAT (site GCTTGCCCTAA) | 0.00772
24 | GCTTGCCCATGGACCGGTTTTCCCGGTAATCCGTATTTGAT (site GCTTGCCCTAC) | 0.00771
25 | GCTTGCCCATGGACCGGTTTTCCCGGTAATCCGTATTTGAT (site GCTTGCCCTAG) | 0
26 | GCTTGCCCATGGACCGGTTTTCCCGGTAATCCGTATTTGAT (site GCTTGCCCTAT) | 0.0141
27 | GCTTGCCCATGGACCGGTTTTCCCGGTAATCCGTATTTGAT (site GCTTGCCCTCT) | 0.0236
28 | GCTTGCCCATGGACCGGTTTTCCCGGTAATCCGTATTTGAT (site GCTTGCCCTGT) | 0
29 | GCTTGCCCATGGACCGGTTTTCCCGGTAATCCGTATTTGAT (site GCTTGCCCTTT) | 0.0171
30 | GCTTGCCCATGGACCGGTTTTCCCGGTAATCCGTATTTGAT (site GCTTGCGCTAT) | 0.0038
31 | GCTTGCCCATGGACCGGTTTTCCCGGTAATCCGTATTTGAT (site GCTTGCTCTAT) | 0.571
32 | GCTTGCCCATGGACCGGTTTTCCCGGTAATCCGTATTTGAT (site GCTTGGCCTAT) | 0.0246
33 | GCTTGCCCATGGACCGGTTTTCCCGGTAATCCGTATTTGAT (site GCTTGTCCTAT) | 0.00271
34 | GCTTGCCCATGGACCGGTTTTCCCGGTAATCCGTATTTGAT (site GCTTTCCCTAT) | 0
35 | GCTTGCCCATGGACCGGTTTTCCCGGTAATCCGTATTTGAT (site GGTTGCCCTAT) | 0.0122
36 | GCTTGCCCATGGACCGGTTTTCCCGGTAATCCGTATTTGAT (site GTTTGCCCTAT) | 0.00461
37 | GCTTGCCCATGGACCGGTTTTCCCGGTAATCCGTATTTGAT (site TCTTGCCCTAT) | 0.0164
38 | GCTTGCGCATGGACCGGTTTTCCCGGTAATCCGTATTTGAT (site GCTTGCACTAT) | 0.734
